Patent publication US11845751B2, “Triazolotriazine derivatives as A2A receptor antagonists” (ZHEJIANG VIMGREEN PHARMACEUTICALS, LTD., priority 2018, dated 2023)

What follows are molecules tested against T1, A2AR (hADORA2A-HEK293 cells) (Homo sapiens, UniProt P29274) (assay: functional cAMP production assay: NECA stimulation of cAMP production and its inhibition by A2AR antagonists). Conditions: not given.
T1 construct: expressed in transfected cells; host or cells: HEK293 (hADORA2A-HEK293)
Format: cell-based
Procedure: The antagonistic activities of the triazolotriazine derivatives of the present invention were measured in a functional cAMP production assay. The assay consists of NECA stimulation of cAMP production and its inhibition by A2AR antagonists in A2AR-expressing HEK293 cells (hADORA2A-HEK293). All cells were cultured in complete medium at 37° C. in 5% CO2. The cells were detached with pancreatin and collected at 200 g for 5 min. After resuspending the cells in fresh complete medium, the cell viability is counted using the trypan blue exclusion method. […] After the cells were diluted with Hank's buffered saline solution containing HEPES (5 mM), BSA stabilizer (0.1%) and […] Rolipram (10 μM), cells were loaded into white opaque 384-well plates (˜500 cells/well, 10 μl/well) and incubated with test compound at a suitable concentration range (11 concentrations) for 20 min at room temperature. Then the A2A receptor agonist NECA (final concentration=EC80, which was determined in the same experiment slightly earlier) was added to the sample and the mixture was incubated again for 30 min at 37° C. […] The inhibition rate (%) was calculated according to the following formula. The IC50 values were calculated from concentration-inhibition (%) curves after log transformation.

T1 sequence (P29274 whole entry): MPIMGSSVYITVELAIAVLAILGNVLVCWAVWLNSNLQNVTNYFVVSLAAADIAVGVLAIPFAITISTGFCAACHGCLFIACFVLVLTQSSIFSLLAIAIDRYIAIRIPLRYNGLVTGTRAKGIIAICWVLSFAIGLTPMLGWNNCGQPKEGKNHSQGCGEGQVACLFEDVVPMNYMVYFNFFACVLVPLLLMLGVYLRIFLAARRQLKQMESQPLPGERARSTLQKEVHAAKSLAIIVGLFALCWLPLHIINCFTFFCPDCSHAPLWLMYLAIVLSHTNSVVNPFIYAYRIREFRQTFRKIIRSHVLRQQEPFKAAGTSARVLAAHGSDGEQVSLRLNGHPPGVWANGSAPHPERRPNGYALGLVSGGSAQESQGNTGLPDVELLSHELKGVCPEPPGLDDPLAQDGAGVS

SMILES	IC50 [nM]
Nc1nc(NCCc2ccc(OCCN3CC3)cc2)nc2nc(-c3ccco3)nn12 [Example 124, N5-(4-(2-(Aziridin-1-yl)ethoxy)phenethyl)-2-(furan-2-yl)-[1,2,4]triazolo[1,5-a][1,3,5]triazine-5,7-diamine]	8.4

Same assay, conditions: A2AR-expressing HEK293 cells (hADORA2A-HEK293); NECA at EC80; TR-FRET cAMP readout; read-out: A2AR Potency (IC50, inhibition of NECA-stimulated cAMP production)

SMILES	IC50 [nM]
CN(C)CCOc1ccc(CCNc2nc(N)n3nc(-c4ccco4)nc3n2)cc1 [Example 13, N5-(4-(2-(Dimethylamino)ethoxy)phenethyl)-2-(furan-2-yl)-[1,2,4]triazolo[1,5-α][1,3,5]-triazine-5,7-diamine]	18
Nc1nc(NCCc2ccc(OCCN3CCCC3)cc2)nc2nc(-c3ccco3)nn12 [Example 16, 2-(Furan-2-yl)-N5-(4-(2-(pyrrolidin-1-yl)ethoxy)phenethyl)-[1,2,4]triazolo[1,5-α][1,3,5]-triazine-5,7-diamine]	24
Nc1nc(NCCc2ccc(OCCCN3CCCC3)cc2)nc2nc(-c3ccco3)nn12 [Example 19, 2-(Furan-2-yl)-N5-(4-(3-(pyrrolidin-1-yl)propoxy)phenethyl)-[1,2,4]triazolo[1,5-α][1,3,5]-triazine-5,7-diamine]	29
Nc1nc(NCCc2ccc(OCc3ccccn3)cc2)nc2nc(-c3ccco3)nn12 [Example 26, 2-(Furan-2-yl)-N5-(4-(pyridin-2-ylmethoxy)phenethyl)-[1,2,4]triazolo[1,5-α][1,3,5]triazine-5,7-diamine]	8
Nc1nc(NCCc2ccc(OCc3ccncc3)cc2)nc2nc(-c3ccco3)nn12 [Example 29, 2-(Furan-2-yl)-N5-(4-(pyridin-4-ylmethoxy)phenethyl)-[1,2,4]triazolo[1,5-α][1,3,5]triazine-5,7-diamine]	7
Nc1nc(NCCc2ccc(OCc3cccnc3)cc2)nc2nc(-c3ccco3)nn12 [Example 32, 2-(Furan-2-yl)-N5-(4-(pyridin-3-ylmethoxy)phenethyl)-[1,2,4]triazolo[1,5-α][1,3,5]triazine-5,7-diamine]	8
Nc1nc(NCCc2ccc(OCCCc3ccncc3)cc2)nc2nc(-c3ccco3)nn12 [Example 36, 2-(Furan-2-yl)-N5-(4-(3-(pyridin-4-yl)propoxy)phenethyl)-[1,2,4]triazolo[1,5-α][1,3,5]-triazine-5,7-diamine]	11
Nc1nc(NCCc2ccc(OCCCc3cccnc3)cc2)nc2nc(-c3ccco3)nn12 [Example 40, 2-(Furan-2-yl)-N5-(4-(3-(pyridin-3-yl)propoxy)phenethyl)-[1,2,4]triazolo[1,5-α][1,3,5]-triazine-5,7-diamine]	11
Nc1nc(NCCc2c[nH]cn2)nc2nc(-c3ccco3)nn12 [Example 42, N5-(2-(1H-Imidazol-4-yl)ethyl)-2-(furan-2-yl)-[1,2,4]triazolo[1,5-α][1,3,5]triazine-5,7-diamine]	129
Nc1nc(NCCc2ccncn2)nc2nc(-c3ccco3)nn12 [Example 44, 2-(Furan-2-yl)-N5-(2-(pyrimidin-4-yl)ethyl)-[1,2,4]triazolo[1,5-α][1,3,5]triazine-5,7-diamine]	63.8
Nc1nc(NCCc2ccc(OCCN3CCCCCC3)cc2)nc2nc(-c3ccco3)nn12 [Example 51, N5-(4-(2-(Azepan-1-yl)ethoxy)phenethyl)-2-(furan-2-yl)-[1,2,4]triazolo[1,5-α][1,3,5]triazine-5,7-diamine]	25.4

Results, then the molecule that gave them:

IC50 [nM]	SMILES
43.2	Nc1nc(NCCc2ccc(OCC3CCN(Cc4cccnc4)C3)cc2)nc2nc(-c3ccco3)nn12 (stereo in doubt) [Example 283, (S)-2-(Furan-2-yl)-N5-(4-((1-(pyridin-3-ylmethyl)pyrrolidin-3-yl)methoxy)phenethyl)-[1,2,4]triazolo[1,5-a][1,3,5]triazine-5,7-diamine]
19.2	Nc1nc(NCCc2ccc(OCCCN3CCCCC3)cc2)nc2nc(-c3ccco3)nn12 [Example 54, 2-(Furan-2-yl)-N5-(4-(3-(piperidin-1-yl)propoxy)phenethyl)-[1,2,4]triazolo[1,5-α][1,3,5]-triazine-5,7-diamine]
7	COCCOc1ccc(CCNc2nc(N)n3nc(-c4ccco4)nc3n2)cc1 [Example 57, 2-(Furan-2-yl)-N5-(4-(2-methoxyethoxy)phenethyl)-[1,2,4]triazolo[1,5-α][1,3,5]triazine-5,7-diamine]
10	COCCOCCOc1ccc(CCNc2nc(N)n3nc(-c4ccco4)nc3n2)cc1 [Example 60, 2-(Furan-2-yl)-N5-(4-(2-(2-methoxyethoxy)ethoxy)phenethyl)-[1,2,4]triazolo[1,5-α][1,3,5]triazine-5,7-diamine]
21.5	COCCOCCOCCOc1ccc(CCNc2nc(N)n3nc(-c4ccco4)nc3n2)cc1 [Example 65, 2-(Furan-2-yl)-N5-(4-(2-(2-(2-methoxyethoxy)ethoxy)ethoxy)phenethyl)-[1,2,4]triazolo[1,5-α][1,3,5]triazine-5,7-diamine]
19	COCCOCCOCCOCCOc1ccc(CCNc2nc(N)n3nc(-c4ccco4)nc3n2)cc1 [Example 70, N5-(4-(2,5,8,11-Tetraoxatridecan-13-yloxy)phenethyl)-2-(furan-2-yl)-[1,2,4]triazolo[1,5-α][1,3,5]triazine-5,7-diamine]
32.3	COCCOCCOCCOCCOCCOc1ccc(CCNc2nc(N)n3nc(-c4ccco4)nc3n2)cc1 [Example 74, N5-(4-(2,5,8,11,14-Pentaoxahexadecan-16-yloxy)phenethyl)-2-(furan-2-yl)-[1,2,4]triazolo[1,5-α][1,3,5]triazine-5,7-diamine]
31.3	COCCOCCOCCOCCOCCOCCOc1ccc(CCNc2nc(N)n3nc(-c4ccco4)nc3n2)cc1 [Example 78, N5-(4-(2,5,8,11,14,17-Hexaoxanonadecan-19-yloxy)phenethyl)-2-(furan-2-yl)-[1,2,4]triazolo[1,5-α][1,3,5]triazine-5,7-diamine]
9	Nc1nc(NCCc2ccc(OCCN3CCOCC3)cc2)nc2nc(-c3ccco3)nn12 [Example 82, 2-(Furan-2-yl)-N5-(4-(2-morpholinoethoxy)phenethyl)-[1,2,4]triazolo[1,5-α][1,3,5]triazine-5,7-diamine]
14.3	Nc1nc(NCCc2ccc(OCCCN3CCOCC3)cc2)nc2nc(-c3ccco3)nn12 [Example 86, 2-(Furan-2-yl)-N5-(4-(3-morpholinopropoxy)phenethyl)-[1,2,4]triazolo[1,5-α][1,3,5]triazine-5,7-diamine]
10.9	Nc1nc(NCCc2ccc(OCCc3ccccn3)cc2)nc2nc(-c3ccco3)nn12 [Example 90, 2-(Furan-2-yl)-N5-(4-(2-(pyridin-2-yl)ethoxy)phenethyl)-[1,2,4]triazolo[1,5-α][1,3,5]triazine-5,7-diamine]
16	Nc1nc(NCCc2ccc(OCCOCCN3CCOCC3)cc2)nc2nc(-c3ccco3)nn12 [Example 94, 2-(Furan-2-yl)-N5-(4-(2-(2-morpholinoethoxy)ethoxy)phenethyl)-[1,2,4]triazolo[1,5-α][1,3,5]triazine-5,7-diamine]
48.5	Nc1nc(NCCc2ccc(OCCN3CCC3)cc2)nc2nc(-c3ccco3)nn12 [Example 98, N5-(4-(2-(Azetidin-1-yl)ethoxy)phenethyl)-2-(furan-2-yl)-[1,2,4]triazolo[1,5-α][1,3,5]triazine-5,7-diamine]
19	COCCOCCOCCOCCOCCOCCOCCOc1ccc(CCNc2nc(N)n3nc(-c4ccco4)nc3n2)cc1 [Example 102, N5-(4-(2-(2-(2-(2-(2-(2-(2-Methoxyethoxy)ethoxy)ethoxy)ethoxy)ethoxy)ethoxy)ethoxy)-phenethyl)-2-(furan-2-yl)-[1,2,4]triazolo[1,5-a][1,3,5]triazine-5,7-diamine]
55	COCCOCCOCCOCCOCCOCCOCCOCCOc1ccc(CCNc2nc(N)n3nc(-c4ccco4)nc3n2)cc1 [Example 109, N5-(4-(2-(2-(2-(2-(2-(2-(2-(2-Methoxyethoxy)ethoxy)ethoxy)ethoxy)ethoxy)ethoxy)ethoxy)-ethoxy)phenethyl)-2-(furan-2-yl)-[1,2,4]triazolo[1,5-a][1,3,5]triazine-5,7-diamine]
15	CN(C)CCCOc1ccc(CCNc2cc(N)n3nc(-c4ccco4)nc3c2)cc1 [Example 113, N^7-(4-(3-(Dimethylamino)propoxy)phenethyl)-2-(furan-2-yl)-[1,2,4]triazolo[1,5-a]pyridine-5,7-diamine]
38	COCCOCCOCCOCCOCCOCCOCCOCCOCCOc1ccc(CCNc2nc(N)n3nc(-c4ccco4)nc3n2)cc1 [Example 117, N5-(4-(2-(2-(2-(2-(2-(2-(2-(2-(2-Methoxyethoxy)ethoxy)ethoxy)ethoxy)ethoxy)ethoxy)-ethoxy)ethoxy)ethoxy)phenethyl)-2-(furan-2-yl)-[1,2,4]triazolo[1,5-a][1,3,5]triazine-5,7-diamine]
14.1	CN1CCC(COc2ccc(CCNc3nc(N)n4nc(-c5ccco5)nc4n3)cc2)CC1 [Example 121, N5-(4-((1-Methylpiperidin-4-yl)methoxy)phenethyl)-2-(furan-2-yl)-[1,2,4]triazolo[1,5-a][1,3,5]triazine-5,7-diamine]
8.09	Nc1nc(NCCc2ccc(OCCF)cc2)nc2nc(-c3ccco3)nn12 [Example 142, N5-(4-(2-Fluoroethoxy)phenethyl)-2-(furan-2-yl)-[1,2,4]triazolo[1,5-a][1,3,5]triazine-5,7-diamine]
